What was measured:
Assay type in all cases: cell-based, human
[1] = test system: Healthy (GM08402) fibroblasts; test: RSL3 cytoprotection assay, healthy fibroblasts; conditions: 1 μM RSL3, 10-1000 nM compound, 4 h
Procedure: (§1) Patient fibroblasts were acquired from Coriell Institute for Medical Research (Camden, NJ, USA). GM03672 is an untransformed fibroblast cell line from a Leigh syndrome patient carrying an unknown mutation. GM08402 is an untransformed fibroblast from an apparently healthy individual. Cells were cultured at 37° C. at 5% CO2 in Eagle's Minimum Essential Medium (MEM, Corning), which was supplemented with Earle's salts and non-essential amino acids, 15% qualified fetal bovine serum, and 1% penicillin/streptomycin ([…]) to yield “Complete MEM.”
(§2) To initiate the RSL3 cytoprotection experiment, Healthy (GM08402) and Leigh syndrome (GM03672) fibroblasts were resuspended in Complete MEM. Cells were seeded at 10,000 cells per well in a clear, tissue cultured-treated, 96-well plate and incubated at 37° C. overnight. Following the incubation, supernatant was manually aspirated, taking care not to disrupt cells. […]. Luminescence units were quantified by GEN5 software on a BioTek SYNERGY neo2 plate reader (LUM filter).
(§3) RSL3 is an inhibitor of the enzyme glutathione peroxidase 4 (GPX4), which decreases lipid peroxides. RSL3 inhibition of GPX4 induces ferroptosis through iron-dependent accumulation of lipid ROS. In this assay, Healthy or Leigh fibroblasts were treated for 4 hours with RSL3 to induce ferroptosis or left untreated. Endogenous ATP levels were measured as an indicator of cellular viability using a commercially available kit (CellTiter-Glo® 2.0 Cell Viability Assay (Promega)).
(§4) […]. […] Briefly, ferroptosis was induced with 1 μM RSL3 in healthy fibroblast cells and 375 nM RSL3 in fibroblasts from a patient with Leigh syndrome.
(§5) A preliminary experiment was performed to determine the effect of RSL3 injury on the fibroblasts of a healthy individual (cell line: GM08402) and the fibroblasts of a patient diagnosed with Leigh syndrome (cell line: GM03672).

[2] = test system: Leigh syndrome (GM03672) fibroblasts; test: RSL3 cytoprotection assay, Leigh fibroblasts; conditions: 375 nM RSL3, 10-1000 nM compound, 4 h
Procedure: as §1, §2, §3, §4, §5

[3] = test system: Healthy (GM08402) fibroblasts; test: Erastin cytoprotection assay, healthy fibroblasts; conditions: 2 μM erastin, 250 μM FAC, 50 μM AA, 10-1000 nM compound, 24 h
Procedure: (§6) Briefly, Healthy (GM08402) or Leigh (GM03672) fibroblasts were resuspended in assay medium, seeded at 10,000 cells per well in a clear, tissue cultured-treated, 96-well plate, and incubated at 37° C. overnight. Following the incubation, supernatant was manually aspirated from wells, taking care not to disrupt cells. Fibroblasts were co-treated in a final volume of 100 μL with 2 μM erastin (Millipore Corp., Cat #), 250 μM ferric ammonium citrate (FAC), 50 μM ascorbic acid (AA), and a titration of one of each of Compounds 1 to 4 or Vatiquinone ranging from 10 to 1000 nM. Following another 24-hour incubation at 37° C., cell viability was measured using the CellTiter-Glo Luminescent Cell Viability Kit (ProMega) per Manufacturer's instructions. Luminescence units were quantified by GEN5 software on a BioTek SYNERGY neo2 plate reader (LUM filter).
(§7) Briefly, erastin, like RSL3, is known to induce ferroptosis. […] Erastin was incubated with cell fibroblasts for 24 hours to induce ferroptosis. Cells were co-treated with each of Compounds 1 to 4, or Vatiquinone as the test articles. Test articles were administered at a range of concentrations to derive a curve. Cell viability was determined using a commercially available kit that measures ATP production. […] An increase in cell viability as determined by the assay is considered to be protective against ferroptosis.

[4] = test system: Leigh (GM03672) fibroblasts; test: Erastin cytoprotection assay, Leigh fibroblasts; conditions: 2 μM erastin, 250 μM FAC, 50 μM AA, 10-1000 nM compound, 24 h
Procedure: as §6, §7

15-lipoxygenase (15-LO) = test: 15(S)-HETE ELISA following RSL3 treatment, Leigh fibroblasts; conditions: 700 nM RSL3, 1 μM compound, 24 h
Procedure: Samples for the 15(S)-HETE ELISA were generated by the RSL3 cytoprotection assay described above. Healthy or Leigh fibroblasts were resuspended in assay medium, seeded at 200,000 cells per well in a clear, tissue culture-treated, 24-well plate. Cells were incubated at 37° C. for 24 hours. Supernatant was aspirated from each well following the incubation.
Fibroblasts from both a healthy individual and a patient diagnosed with Leigh syndrome were examined (but not all compounds were examined in each cell type). Activation of ferroptosis has been implicated as a driver of epilepsy, which is commonly associated with Leigh syndrome. […] Kahn-Kirby et al. PLOS One. […] As a key regulator of ferroptosis, 15-LO serves as a rational therapeutic target in Leigh syndrome.

Row | SMILES | relative anti-ferroptosis properties (comparison between test articles) [1] | relative anti-ferroptosis properties (comparison between test articles) [2] | relative protective effect against erastin induced ferroptosis (cell viability, ATP) [3] | relative protective effect against erastin induced ferroptosis (cell viability, ATP) [4] | relative 15-LO inhibition (comparison between test articles) (15-lipoxygenase (15-LO))
1 | CC1=C(C)C(=O)C(CC[C@@](C)(O)CC/C=C(\C)CCC=C(F)F)=C(C)C1=O [Compound 2] | superior to Compounds 1, 4 and Vatiquinone | superior to Compounds 1, 4 and Vatiquinone | superior in their protective effect as compared with Vatiquinone or Compounds 1 or 4 | superior in their protective effect as compared with Vatiquinone or Compounds 1 or 4 | roughly equivalent protective effect
2 | CC1=C(C)C(=O)C(CC[C@@](C)(O)COCCC[Si](C)(C)C)=C(C)C1=O [Compound 3] | superior to Compounds 1, 4 and Vatiquinone | superior to Compounds 1, 4 and Vatiquinone | superior in their protective effect as compared with Vatiquinone or Compounds 1 or 4 | superior in their protective effect as compared with Vatiquinone or Compounds 1 or 4 | roughly equivalent protective effect
3 | CC1=C(C)C(=O)C(CC[C@](C)(O)CCCCCCCCC(F)(F)F)=C(C)C1=O [Compound 4] | roughly equivalent in their anti-ferroptosis properties | roughly equivalent in their anti-ferroptosis properties | about equally protective | about equally protective | roughly equivalent protective effect

— patent US20250090562A1, “METHODS, COMPOSITIONS AND USES RELATED TO THE TREATMENT AND PREVENTION OF LEIGH’S SYNDROME” (Stealth BioTherapeutics Inc., priority 2023, published 2025)
